This is an account of results in patent publication US20150119373A1, “NOVEL BETULINIC ACID DERIVATIVES AS HIV INHIBITORS” (HETERO RESEARCH FOUNDATION, priority 2012, published 2015).

One may read the inhibition as the relative decrease from the control value, in per cent. As a reminder, the viability is a per cent measure of how many cells are alive, often set against a control. One may read the AUC(0-inf) as total exposure, with the tail of the curve extrapolated. Low values mean low exposure, high ones high exposure. The term Cmax denotes the maximum level reached in the sampled fluid or tissue. For orientation: Tmax means the time at which the peak concentration occurs.

Like-named read-outs stand apart in the source and are kept apart here.

The subject of one data set is HIV-1 strain 92HT599. As to the kind of experiment: Antiviral activity: p24 estimation in MT2 cells infected with HIV-1 strain 92HT599. The class given is cell-based. Particulars: for inhibition at 0.1 µM: read-out: Antiviral activity % inhibition 100 nM; for inhibition at 1 µM: read-out: Antiviral activity % inhibition 1000 nM. Summed up: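 Infection of MT2 cells used 10 TCID50/30000 cells, with compound present at ≤1% DMSO for ~96 h. p24 in well aliquots was quantified by kit. Percent inhibition is relative to vehicle controls.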

Data set [1] in a line: Cyto-toxicity assay (MTT) in MT2 cells without virus. The class given is cell-based. Particulars: human. On the procedure: For cyto-toxicity assay the same amount of MT2 cells as in antiviral assay without virus was added to the 96 well plates. The cyto-toxicity was measured using MTT reagent in parallel with p24 estimation. The percent viability is calculated in comparison with vehicle control.

A short description of data set [2]: Single dose oral pharmacokinetic study in mice. The class given is in vivo. Particulars: Oral PK @ 30 mg/ kg dose in mice (Table 6); for AUC(0-inf) / Cmax / Tmax / AUC(0-t): mouse, plasma; for AUC(0-t): read-out: AUCt. On the procedure:
The test item was administered through oral route to animals (rat/mice) at 30 mg/kg dose in a suitable vehicle at 10 ml/kg dose volume. Blood samples (˜50 uL at each time point) were collected from retro-orbital plexus using K3 EDTA as anticoagulant in eppendorf tubes at defined time intervals under light ether anesthesia. The samples were centrifuged at 3500×g to separate plasma and stored at −80° C. until analysis.
Sample analysis: Test samples were analyzed using LC-MS-MS after developing fit-for-purpose method for each of test compound.

[3] abbreviates: Human immunodeficiency virus 1, 100 nM, MT2 cells, HIV-1 92HT599, ~96 hours, p24.
Setting [4] is: Human immunodeficiency virus 1, 1000 nM, MT2 cells, HIV-1 92HT599, ~96 hours, p24.
[5] abbreviates: Human immunodeficiency virus 1, MT2, 96 h.

With `CCN1CCN(C(=O)[C@]23CC[C@@H](C4(C)CC4)[C@@H]2[C@H]2CC[C@@H]4[C@@]5(C)CC[C@H](OC(=O)CC(C)(C)CC(=O)O)C(C)(C)[C@@H]5CC[C@@]4(C)[C@]2(C)CC3)CC1` [Example 26, 5-(((1R,3aS,5aR,5bR,7aR,9S,11aR,11bR,13aR,13bR)-3a-(4-ethylpiperazine-1-carbonyl)-5a,5b,8,8,8,11a-pentamethyl-1-(1-methylcyclopropyl)icosahydro-1H-cyclopenta[a]chrysen-9-yl)oxy)-3,3-dimethyl-5-oxopentanoic acid], the inhibition at 0.1 µM in the data set with HIV-1 strain 92HT599 (setting [3]) was 94%. Moreover, the inhibition at 1 µM with HIV-1 strain 92HT599 (setting [4]) is 99%. Also, in data set [1], the viability at 100 nM was 100% and the viability at 1000 nM was found to be 99%. For the same compound, in data set [2], the Tlast amounted to 24 h, the AUC(0-inf) turned out to be 151 µg·h/mL, the highest level (Cmax) was 6900 ng/mL and the Tmax came to 3.5 h. Further, the AUC(0-t) in data set [2] came out at 99.4 µg·h/mL.
For `CC(C)(CC(=O)O[C@H]1CC[C@]2(C)[C@H]3CC[C@@H]4[C@H]5[C@H](C6(C)CC6)CC[C@]5(C(=O)N5CCOCC5)CC[C@@]4(C)[C@]3(C)CC[C@H]2C1(C)C)C(=O)O` [Example 27, 2,2-dimethyl-4-oxo-4-(((1R,3aS,5aR,5bR,7aR,9S,11aR,1bR,13aR,13bR)-5a,5b,8,8,11a-pentamethyl-1-(1-methylcyclopropyl)-3a-(morpholine-4-carbonyl)icosahydro-1H-cyclopenta[a]chrysen-9-yl)oxy)butanoic acid], the inhibition at 0.1 µM with HIV-1 strain 92HT599 (setting [3]) was 94%. Also, in the data set on HIV-1 strain 92HT599 (setting [4]), the inhibition at 1 µM was 88%. For the same compound, in data set [1], the viability at 100 nM came out at 100% and the viability at 1000 nM came to 94%. In data set [2], the Tlast came out at 48 h, the AUC(0-inf) amounted to 106 µg·h/mL, the Cmax was 7000 ng/mL and the Tmax is 3.5 h. Also, in data set [2], the AUC(0-t) was 101 µg·h/mL.
Regarding `CC1([C@@H]2CC[C@]3(C(=O)N4CCOCC4)CC[C@]4(C)[C@H](CC[C@@H]5[C@@]6(C)CC[C@H](OC(=O)[C@H]7C[C@@H](C(=O)O)C7(C)C)C(C)(C)[C@@H]6CC[C@]54C)[C@@H]23)CC1` [Example 28, (1R,3S)-2,2-dimethyl-3-((((1R,3aS,5aR,5bR,7aR,9S,11aR,11bR,13aR,13bR)-5a,5b,8,8,11a-pentamethyl-1-(1-methylcyclopropyl)-3a-(morpholine-4-carbonyl)icosahydro-1H-cyclopenta[a]chrysen-9-yl)oxy)carbonyl)cyclobutane-1-carboxylic acid], in the data set with HIV-1 strain 92HT599 (setting [3]), the inhibition at 0.1 µM is 98%. The inhibition at 1 µM in the data set with HIV-1 strain 92HT599 (setting [4]) is 99%. Further, in data set [1], the viability at 100 nM came out at 81% and the viability at 1000 nM amounted to 78%. Moreover, in data set [2], the Tlast is 48 h, the AUC(0-inf) was 398 µg·h/mL, the Cmax was 4500 ng/mL and the time of peak concentration (Tmax) was determined as 16 h. The AUC(0-t) in data set [2] amounted to 171 µg·h/mL.
For the compound `COC1CCN(C(=O)[C@]23CC[C@@H](C4(C)CC4)[C@@H]2[C@H]2CC[C@@H]4[C@@]5(C)CC[C@H](OC(=O)[C@H]6C[C@@H](C(=O)O)C6(C)C)C(C)(C)[C@@H]5CC[C@@]4(C)[C@]2(C)CC3)CC1` [Example 29], in the data set with HIV-1 strain 92HT599 (setting [5]), the inhibition at 0.1 µM was 95% and the inhibition at 1 µM was 99%. The viability at 100 nM in data set [1] (100 nM, MT2 cells, MTT, read-out: Cytotoxicity % viability 100 nM) was 81%. In addition, the viability at 1000 nM in data set [1] (1000 nM, MT2 cells, MTT, read-out: Cytotoxicity % viability 1000 nM) was 77%. In addition, in data set [2], the Tlast was determined as 48 h, the highest level (Cmax) was 11700 ng/mL, the Tmax was 16 h and the AUC(0-t) stood at 428 µg·h/mL.
For `[2H]C([2H])([2H])C(CC(=O)O[C@H]1CC[C@]2(C)[C@H]3CC[C@@H]4[C@H]5[C@H](C6(C)CC6)CC[C@]5(C(=O)N5CCN(CC)CC5)CC[C@@]4(C)[C@]3(C)CC[C@H]2C1(C)C)(C(=O)O)C([2H])([2H])[2H]` [Example 30], in the data set with HIV-1 strain 92HT599 (setting [3]), the inhibition at 0.1 µM was 97%. In addition, the inhibition at 1 µM in the data set with HIV-1 strain 92HT599 (setting [4]) was 99%. In data set [1], the viability at 100 nM worked out at 83% and the viability at 1000 nM is 82%. In data set [2], the Tlast was determined as 48 h, the AUC(0-inf) amounted to 78.5 µg·h/mL, the highest concentration (Cmax) stood at 4700 ng/mL and the Tmax came to 3.5 h. Moreover, the AUC(0-t) in data set [2] was determined as 67.1 µg·h/mL.
Turning to `CC(C)(CC(=O)O[C@H]1CC[C@]2(C)[C@H]3CC[C@@H]4[C@H]5[C@H](C6(C)CC6)CC[C@]5(C(=O)N5CCN(CCN6CCOCC6)CC5)CC[C@@]4(C)[C@]3(C)CC[C@H]2C1(C)C)C(=O)O` [Example 31, 2,2-dimethyl-4-oxo-4-(((1R,3aS,5aR,5bR,7aR,9S,11aR,11bR,13aR,13bR)-5a,5b,8,8,11a-pentamethyl-1-(1-methylcyclopropyl)-3a-(4-(2-morpholinoethyl)piperazine-1-carbonyl)icosahydro-1H-cyclopenta[a]chrysen-9-yl)oxy)butanoic acid], in the data set on HIV-1 strain 92HT599 (setting [3]), the inhibition at 0.1 µM is 99%. For the same compound, the inhibition at 1 µM with HIV-1 strain 92HT599 (setting [4]) was 99%. In data set [1], the viability at 100 nM worked out at 100% and the viability at 1000 nM worked out at 95%. In addition, in data set [2], the Tlast is 48 h, the AUC(0-inf) turned out to be 240 µg·h/mL, the highest level (Cmax) was 9200 ng/mL and the Tmax turned out to be 6.5 h. In data set [2], the AUC(0-t) was 214 µg·h/mL.
On to `CC1([C@@H]2CC[C@]3(C(=O)N4CCN(CCN5CCOCC5)CC4)CC[C@]4(C)[C@H](CC[C@@H]5[C@@]6(C)CC[C@H](OC(=O)[C@H]7C[C@@H](C(=O)O)C7(C)C)C(C)(C)[C@@H]6CC[C@]54C)[C@@H]23)CC1` [Example 32], for which the inhibition at 0.1 µM with HIV-1 strain 92HT599 (setting [3]) is 99%. In the data set with HIV-1 strain 92HT599 (setting [4]), the inhibition at 1 µM is 99%. In data set [1], this compound showed a viability at 100 nM of 100% and a viability at 1000 nM of 95%. In data set [2], the Tlast was found to be 48 h, the total exposure AUC(0-inf) amounted to 240 µg·h/mL, the Cmax was 9200 ng/mL and the Tmax turned out to be 6.5 h. Besides, in data set [2], the AUC(0-t) was 214 µg·h/mL.
Take `CC1([C@@H]2CC[C@]3(C(=O)N4CCN(CCCN5CCOCC5)CC4)CC[C@]4(C)[C@H](CC[C@@H]5[C@@]6(C)CC[C@H](OC(=O)[C@H]7C[C@@H](C(=O)O)C7(C)C)C(C)(C)[C@@H]6CC[C@]54C)[C@@H]23)CC1` [Example 34]: the inhibition at 0.1 µM in the data set on HIV-1 strain 92HT599 (setting [3]) was 100%. Moreover, the inhibition at 1 µM in the data set on HIV-1 strain 92HT599 (setting [4]) is 100%. Also, in data set [1], the viability at 100 nM worked out at 100% and the viability at 1000 nM was 91%. Besides, in data set [2], the Tlast is 48 h, the AUC(0-inf) stood at 240 µg·h/mL, the peak level (Cmax) was 9200 ng/mL and the Tmax is 6.5 h. Moreover, the AUC(0-t) in data set [2] is 214 µg·h/mL.
On to `COCCOCCN1CCN(C(=O)[C@]23CC[C@@H](C4(C)CC4)[C@@H]2[C@H]2CC[C@@H]4[C@@]5(C)CC[C@H](OC(=O)CC(C)(C)C(=O)O)C(C)(C)[C@@H]5CC[C@@]4(C)[C@]2(C)CC3)CC1` [Example 39, 4-(((1R,3aS,5aR,5bR,7aR,9S,11aR,11bR,13aR,13bR)-3a-(4-(2-(2-methoxyethoxyl)ethyl)piperazine-1-carbonyl)-5a,5b,8,8,11a-pentamethyl-1-(1-methylcyclopropyl)icosahydro-1H-cyclopenta[a]chrysen-9-yl)oxy)-2,2-dimethyl-4-oxobutanoic acid], for which the inhibition at 0.1 µM in the data set with HIV-1 strain 92HT599 (setting [3]) was 97%. In addition, the inhibition at 1 µM in the data set on HIV-1 strain 92HT599 (setting [4]) is 99%. Further, in data set [1], the viability at 100 nM stood at 83% and the viability at 1000 nM came to 88%. In data set [2], the Tlast was 48 h, the AUC(0-inf) worked out at 119 µg·h/mL, the Cmax stood at 7000 ng/mL and the Tmax was found to be 4 h. Moreover, the AUC(0-t) in data set [2] amounted to 111 µg·h/mL.
`COCCOCCN1CCN(C(=O)[C@]23CC[C@@H](C4(C)CC4)[C@@H]2[C@H]2CC[C@@H]4[C@@]5(C)CC[C@H](OC(=O)[C@H]6C[C@@H](C(=O)O)C6(C)C)C(C)(C)[C@@H]5CC[C@@]4(C)[C@]2(C)CC3)CC1` [Example 40, (1R,3S)-3-((((1R,3aS,5aR,5bR,7aR,9S,11aR,11bR,13aR,13bR)-3a-(4-(2-(2-methoxyethoxy)ethyl)piperazine-1-carbonyl)-5a,5b,8,8,11a-pentamethyl-1-(1-methylcyclopropyl)icosahydro-1H-cyclopenta[a]chrysen-9-yl)oxy)carbonyl)-2,2-dimethylcyclobutane-1-carboxylic acid]: in the data set with HIV-1 strain 92HT599 (setting [3]), the inhibition at 0.1 µM was 100%. For the same compound, in the data set on HIV-1 strain 92HT599 (setting [4]), the inhibition at 1 µM was 99%. In data set [1], this compound came in with a viability at 100 nM of 79% and a viability at 1000 nM of 81%. Further, in data set [2], the Tlast is 48 h, the AUC(0-inf) is 119 µg·h/mL, the peak level (Cmax) was 7000 ng/mL and the Tmax came out at 4 h. Also, the AUC(0-t) in data set [2] is 111 µg·h/mL.
